According to ChEMBL document CHEMBL1201862, “PubChem BioAssay data set” (2004):
Active and inactive are the calls of the source.

What was measured:
[1] = target: T1, Zinc finger protein mex-5 (Caenorhabditis elegans, UniProt Q9XUB2); test: potency of MEX-5 RNA-binding blockers – biochemical, C. elegans, fluorescence polarization, dose response (AID 1960)
T1 sequence (Q9XUB2 whole entry): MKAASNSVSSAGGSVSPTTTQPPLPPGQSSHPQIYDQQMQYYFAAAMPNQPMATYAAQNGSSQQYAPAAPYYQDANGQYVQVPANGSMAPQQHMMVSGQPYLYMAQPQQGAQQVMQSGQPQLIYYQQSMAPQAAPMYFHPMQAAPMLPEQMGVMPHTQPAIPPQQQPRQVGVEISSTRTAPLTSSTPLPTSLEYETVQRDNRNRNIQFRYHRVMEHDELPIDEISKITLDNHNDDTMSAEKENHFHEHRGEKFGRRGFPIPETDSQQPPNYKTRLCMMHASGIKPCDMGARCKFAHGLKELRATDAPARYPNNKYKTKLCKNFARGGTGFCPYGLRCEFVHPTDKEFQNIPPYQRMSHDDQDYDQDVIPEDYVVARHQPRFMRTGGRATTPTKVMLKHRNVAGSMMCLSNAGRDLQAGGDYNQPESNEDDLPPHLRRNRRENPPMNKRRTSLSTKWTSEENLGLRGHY

[2] = target: T2, Estrogen receptor (Homo sapiens, UniProt P03372); test: ERα coactivator recruitment enhancers – biochemical, TR-FRET, ERα LBD, dose response (AID 737)
T2 sequence (P03372 whole entry): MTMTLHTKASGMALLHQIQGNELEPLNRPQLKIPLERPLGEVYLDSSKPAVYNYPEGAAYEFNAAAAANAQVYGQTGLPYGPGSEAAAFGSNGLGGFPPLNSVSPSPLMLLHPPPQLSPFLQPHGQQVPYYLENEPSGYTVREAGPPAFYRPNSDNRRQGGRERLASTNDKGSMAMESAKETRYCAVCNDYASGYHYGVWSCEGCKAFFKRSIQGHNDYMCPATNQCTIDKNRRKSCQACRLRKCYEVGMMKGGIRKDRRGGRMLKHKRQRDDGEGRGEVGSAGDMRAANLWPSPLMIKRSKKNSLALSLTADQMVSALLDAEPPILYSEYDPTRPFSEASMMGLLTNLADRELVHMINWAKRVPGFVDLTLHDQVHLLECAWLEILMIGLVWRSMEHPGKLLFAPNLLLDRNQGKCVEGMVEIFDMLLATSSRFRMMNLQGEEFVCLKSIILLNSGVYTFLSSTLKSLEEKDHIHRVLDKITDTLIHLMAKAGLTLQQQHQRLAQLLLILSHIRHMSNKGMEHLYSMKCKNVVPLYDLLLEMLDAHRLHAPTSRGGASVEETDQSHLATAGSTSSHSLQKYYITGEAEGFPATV

[3] = target: T3, RNA-binding protein pos-1 (Caenorhabditis elegans, UniProt G5EF15); test: disruptors of C. elegans POS-1 RNA interaction – biochemical, fluorescence polarization, dose response (AID 1964);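 also: purified POS-1 fused to maltose binding protein made in E. coli; potency of compounds blocking POS-1 binding to fluorescent RNA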
T3 sequence (G5EF15 whole entry): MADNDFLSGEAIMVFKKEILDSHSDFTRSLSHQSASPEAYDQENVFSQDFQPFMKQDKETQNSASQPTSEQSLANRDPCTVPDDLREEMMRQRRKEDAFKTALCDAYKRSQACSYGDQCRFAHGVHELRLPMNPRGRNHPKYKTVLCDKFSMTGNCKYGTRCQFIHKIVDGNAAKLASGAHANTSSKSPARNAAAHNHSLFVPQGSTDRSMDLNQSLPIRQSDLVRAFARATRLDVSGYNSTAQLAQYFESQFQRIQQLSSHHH

[4] = cells
[5] = target: T4, Oxysterols receptor LXR-beta (Homo sapiens, UniProt P55055); assay type: functional, cell-based;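 also: Cell-based luminescence dose-response assay of agonist activity at LXR, run as a confirmatory counterscreen to a daf-12 agonist screen; HEK293 cells with Gal4-LXR fusion and GAL4-driven luciferase reporter; agonist potency from rising luciferase signal of a Gal4-LXR reporter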
T4 sequence (P55055 whole entry): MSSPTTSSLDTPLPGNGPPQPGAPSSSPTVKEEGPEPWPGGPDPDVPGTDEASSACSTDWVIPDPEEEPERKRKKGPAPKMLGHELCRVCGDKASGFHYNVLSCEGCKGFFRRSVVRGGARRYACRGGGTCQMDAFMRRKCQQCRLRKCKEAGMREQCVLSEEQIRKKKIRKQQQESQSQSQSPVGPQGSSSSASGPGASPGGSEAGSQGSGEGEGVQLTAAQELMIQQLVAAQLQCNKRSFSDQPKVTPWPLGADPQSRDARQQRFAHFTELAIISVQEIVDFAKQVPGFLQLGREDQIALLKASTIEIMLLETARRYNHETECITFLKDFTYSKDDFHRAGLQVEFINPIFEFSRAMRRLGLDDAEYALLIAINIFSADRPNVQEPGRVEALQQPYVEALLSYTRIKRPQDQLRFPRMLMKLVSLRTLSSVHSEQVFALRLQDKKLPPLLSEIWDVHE

[6] = target: NAD-dependent protein deacylase sirtuin-5, mitochondrial (Homo sapiens, UniProt Q9NXA8); test: sirtuin-5 deacylation blockers, concentration series – biochemical, fluorescence imaging, cherry-pick, set 5, dose response (AID 720591);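 also: desuccinylation of succinyl peptide AMC substrate read as fluorescence after trypsin release; potency of inhibitors that lower fluorescence and may act on trypsin instead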
[7] = target: T5, Carboxy-terminal domain RNA polymerase II polypeptide A small phosphatase 1 (Homo sapiens, UniProt Q9GZU7); test: CTDSP1 inhibitors, concentration-response, biochemical, absorbance readout, ultra-high-throughput screen actives (AID 540297); assay type: functional
T5 sequence (Q9GZU7 whole entry): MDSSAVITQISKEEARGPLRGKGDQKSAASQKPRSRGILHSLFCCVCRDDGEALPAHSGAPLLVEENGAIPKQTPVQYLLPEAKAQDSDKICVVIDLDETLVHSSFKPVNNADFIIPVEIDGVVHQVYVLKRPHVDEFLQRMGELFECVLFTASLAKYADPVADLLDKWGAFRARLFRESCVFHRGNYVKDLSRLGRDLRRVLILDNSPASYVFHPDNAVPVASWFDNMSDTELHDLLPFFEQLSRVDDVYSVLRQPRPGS

[8] = target: Protein Tat (Human immunodeficiency virus type 1 group M subtype B (isolate HXB2)(HIV-1), UniProt P04608); assay type: functional;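 also: tat binding to TAR RNA read out by fluorescence polarization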
[9] = target: T6, Probable nicotinate-nucleotide adenylyltransferase (Staphylococcus aureus (strain N315), UniProt P65502); assay type: functional, Staphylococcus aureus subsp. aureus N315; conditions: read-out: IC50_Mean;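 as to IC50 Mean: confirmatory dose-response retesting of NadD inhibitor hits first found in an ultra-high-throughput screen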
[10] = target: T6, Probable nicotinate-nucleotide adenylyltransferase; assay type: functional, Staphylococcus aureus subsp. aureus N315
[11] = viability loss in THP-1 monocytes – THP-1 cells, cytotoxicity control for Vif-APOBEC3G degradation inhibitor project, dose response (AID 1117359); assay type: functional; conditions: THP-1
[12] = target: T7, Small ubiquitin-related modifier 1 (Homo sapiens, UniProt P63165); test: SUMO1 protein-protein binding blockers, potency – biochemical, FRET, dose response (AID 624383); assay type: functional; conditions: read-out: IC50_Mean
[13] = target: T7, Small ubiquitin-related modifier 1; test: SUMO1 protein interaction blockers, potency – biochemical, fluorescence polarization, uHTS hits, dose response (AID 624382); assay type: functional; conditions: read-out: IC50_Mean
[14] = target: G-protein coupled receptor 183 (Homo sapiens, UniProt P32249); test: SAR confirmation of small molecule antagonists of the EBI2 receptor via a luminescent beta-arrestin assa.; assay type: functional
[15] = growth inhibition of yeast DHODH-expressing 3D7 parasites – SYBR Green, dry powder samples, dose response (AID 1159570); assay type: functional, cell-based;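 also: parasite growth measured after 72 hours of compound exposure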
[16] = Dd2 malaria parasite growth inhibition potency – SYBR Green, dry powder samples, dose response (AID 1159566); assay type: functional, cell-based;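 also: potency for growth inhibition with lower SYBR green DNA signal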
[17] = growth inhibition of PfATP4-mutant resistant parasites – NITD609-resistant line, SYBR Green, dry powder, dose response (AID 1159571); assay type: functional, cell-based;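 also: parasites synchronized at ring stage by sorbitol before testing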
[18] = P. falciparum Dd2 growth inhibitors, dose response, SYBR Green, cherry-picked samples (AID 1159567); assay type: functional, cell-based
[19] = viability loss in human Jurkat cells – cell-based, luminescence, cytotoxicity control for P. falciparum gametocyte viability project, dose response (AID 1117277); assay type: functional;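 also: potency reflects loss of cellular ATP meaning fewer viable cells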
[20] = viability inhibitors of stage V gametocytes – luminescence, dose response (AID 1117278); assay type: functional, cell-based;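 also: gametocytes exposed to compound for 24 hours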
[21] = target: T8, Low molecular weight phosphotyrosine protein phosphatase (Homo sapiens, UniProt P24666); test: inhibition of human LMPTP enzyme activity – biochemical, absorbance, pNPP substrate, LMPTP-A isoform, set 2, orthogonal assay, dose response (AID 743308); assay type: functional
T8 sequence (P24666 whole entry): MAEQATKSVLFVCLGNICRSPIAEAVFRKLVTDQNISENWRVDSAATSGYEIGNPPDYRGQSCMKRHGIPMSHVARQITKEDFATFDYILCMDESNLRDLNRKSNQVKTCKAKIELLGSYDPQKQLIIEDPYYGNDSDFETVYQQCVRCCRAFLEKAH

[22] = target: T8, Low molecular weight phosphotyrosine protein phosphatase; test: inhibition of LMPTP-A enzymatic activity – biochemical, OMFP substrate, fluorescence intensity, set 2, dose response (AID 743307); assay type: functional
[23] = cytotoxicity toward HT-29 cells – cell-based, CellTiter-Glo luminescence, IC50, dose response (AID 1117330); assay type: functional
[24] = cytotoxicity toward Colo320 cells – cell-based, CellTiter-Glo luminescence, IC50, dose response (AID 1117334); assay type: functional; conditions: COLO 320
[25] = rise of 2N DNA cells, HeLa – IC50, dose response (AID 1117349); assay type: functional, cell-based
[26] = rise of 4N DNA cells, HeLa – IC50, dose response (AID 1117351); assay type: functional, cell-based
[27] = cytotoxicity toward HCT116 cells – cell-based, CellTiter-Glo luminescence, IC50, dose response (AID 1117332); assay type: functional; conditions: HCT-116
[28] = SNU-C1 cell viability reduction, dose response, CellTiter-Glo luminescence (AID 1117323); assay type: functional, cell-based
[29] = Reduced DLD-1 viability, concentration-response, CellTiter-Glo luminescence (AID 1117352); assay type: functional
[30] = CellTiter-Glo luminescence survival assay, SW480 colon tumor line, concentration-response curve, half-maximal inhibitory concentration (AID 1117338); assay type: functional
[31] = RKO cell viability reduction, dose response, CellTiter-Glo luminescence (AID 1117322); assay type: functional
[32] = toxicity to human hepatoma HepG2 cells – cell-based, cherry-picked samples, cytotoxicity control, dose response (AID 1159577); assay type: functional
[33] = test system: Escherichia coli; test: microbe, parasite or virus in culture
[34] = test system: Escherichia coli; test: microbe, parasite or virus in culture; remark: listed apart in the source

T7 sequence (P63165 whole entry): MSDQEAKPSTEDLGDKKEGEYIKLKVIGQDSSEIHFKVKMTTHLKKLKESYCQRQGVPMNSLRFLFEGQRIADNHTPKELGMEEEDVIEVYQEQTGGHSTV
Sequence of G-protein coupled receptor 183 (P32249 whole entry): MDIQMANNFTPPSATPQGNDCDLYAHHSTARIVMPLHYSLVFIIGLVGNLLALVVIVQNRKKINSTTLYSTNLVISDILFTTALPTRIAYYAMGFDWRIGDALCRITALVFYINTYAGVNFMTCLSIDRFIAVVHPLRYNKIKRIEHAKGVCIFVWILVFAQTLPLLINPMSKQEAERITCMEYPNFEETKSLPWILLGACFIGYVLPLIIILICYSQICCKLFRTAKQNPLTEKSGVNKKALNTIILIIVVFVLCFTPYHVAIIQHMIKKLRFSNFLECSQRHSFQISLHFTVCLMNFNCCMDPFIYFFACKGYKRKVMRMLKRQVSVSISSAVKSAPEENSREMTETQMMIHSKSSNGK
T6 sequence (P65502 whole entry): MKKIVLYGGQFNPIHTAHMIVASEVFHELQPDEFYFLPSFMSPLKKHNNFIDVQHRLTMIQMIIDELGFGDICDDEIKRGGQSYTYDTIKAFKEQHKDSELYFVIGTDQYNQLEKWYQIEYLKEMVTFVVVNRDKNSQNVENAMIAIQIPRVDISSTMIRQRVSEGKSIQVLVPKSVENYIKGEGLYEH
Sequence of Protein Tat (P04608 whole entry): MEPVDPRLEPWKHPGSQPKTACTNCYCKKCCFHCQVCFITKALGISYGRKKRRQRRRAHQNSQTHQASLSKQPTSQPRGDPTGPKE
Sequence of NAD-dependent protein deacylase sirtuin-5, mitochondrial (Q9NXA8 whole entry, the tested form may be a part): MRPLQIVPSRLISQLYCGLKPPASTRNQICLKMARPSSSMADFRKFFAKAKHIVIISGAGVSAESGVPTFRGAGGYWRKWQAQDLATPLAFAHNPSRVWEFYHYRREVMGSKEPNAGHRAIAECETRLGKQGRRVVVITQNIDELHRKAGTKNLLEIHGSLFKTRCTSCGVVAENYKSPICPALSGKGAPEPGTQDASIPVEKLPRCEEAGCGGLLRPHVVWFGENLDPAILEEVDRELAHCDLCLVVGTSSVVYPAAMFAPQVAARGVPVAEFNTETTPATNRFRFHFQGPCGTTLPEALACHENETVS

## Cc1ccc2ccc(C3C(=O)c4ccccc4C3=O)nc2c1
[1]
  EC50: 48.4 µM (active)
[2]
  EC50: 13.2 µM (not active)
[3]
  EC50: > 300 µM (not active)
[4]
  EC50: > 67.6 µM (inactive)
[5]
  EC50: > 67.6 µM (inactive)

## COC(=O)c1ccc2nc(-c3ccc(OC)c(OC)c3)c(Cc3ccccc3C(F)(F)F)n2c1
[6]
  AC50: > 30 µM (inactive)

## O=C(COC(=O)c1c2c(nc3ccccc13)/C(=C\c1ccco1)CC2)NC1CCCC1
[7]
  IC50: 2.49 µM (active)
[8]
  IC50: > 100 µM (active)
[9]
  IC50: 16.9 µM (active)
[10]
  IC50: 8.49 µM (active)
[11]
  CC50: > 40 µM (active)
[12]
  IC50: 10.4 µM (active)
[13]
  IC50: > 66.6 µM (inactive)

## O=C(/C=C/c1ccc(Br)cc1F)N1CCN(S(=O)(=O)c2ccc(Br)cc2)CC1
[14]
  IC50: 0.0655 µM (active)

## C[C@@H]1CN([C@@H](C)CO)C(=O)Cc2cc(NC(=O)Nc3ccc4c(c3)OCO4)ccc2O[C@@H]1CN(C)CC1CC1
[15]
  AC50: 4.73 µM (active)
[16]
  AC50: 2.02 µM (active)
[17]
  AC50: 2.76 µM (active)
[18]
  AC50: 2.37 µM (active)

## CC(C)(C)c1cccc(OCCCSc2ncccn2)c1
[19]
  IC50: > 83.3 µM (inactive)
[20]
  IC50: > 109 µM (inactive)

## c1ccc(-c2cc(OCCCN3CCCCC3)c3ccccc3n2)cc1
[21]
  IC50: 19 µM (active)
[22]
  IC50: 11.5 µM (active)

## Cc1ccc2nc(-c3ccccc3)c(-c3ccccc3)nc2c1
[19]
  IC50: > 83.3 µM (inactive)
[20]
  IC50: > 109 µM (inactive)

## COc1ccc(-c2ccc3cc(C(=O)O)ccc3c2)cc1C12CC3CC(CC(C3)C1)C2
[23]
  IC50: 1.12 µM (active)
[24]
  IC50: 0.787 µM (active)
[25]
  IC50: > 10 µM (inactive)
[26]
  IC50: > 10 µM (inactive)
[27]
  IC50: 0.59 µM (active)
[28]
  IC50: 1.78 µM (active)
[29]
  IC50: 0.597 µM (active)
[30]
  IC50: 0.405 µM (active)
[31]
  IC50: 0.444 µM (active)

## COc1cc2nc(-c3ccccc3)cc(NCCCN3CCCCC3)c2cc1OC
[21]
  IC50: > 80 µM (inactive)
[22]
  IC50: > 80 µM (inactive)

## O=C(/C=C/c1ccc(Br)cc1)N1CCN(Cc2ccc(F)cc2C(F)(F)F)CC1
[14]
  IC50: 0.00818 µM (active)

## COc1ccc(CCNC(=O)CN2CCCc3ccccc32)cc1OC
[8]
  IC50: > 100 µM (active)

## CCc1nc(N2[C@H](C#N)[C@H](c3ccccc3-c3ccccc3F)[C@@H]2CO)sc1C
[32]
  AC50: > 39 µM (inactive)
[18]
  AC50: 8.71 µM (active)

## Fc1cccc(-c2ccc([C@@H]3[C@@H]4CN(Cc5cccnc5)C[C@H]3N4)cc2)c1
[32]
  AC50: 13 µM (active)
[18]
  AC50: 0.348 µM (active)

## C=C1c2cccc(O)c2C(=O)C2C(=O)[C@]3(O)C(=O)C(C(N)=O)C(=O)[C@@H](N(C)C)[C@@H]3[C@@H](O)[C@H]12 (some centres undefined)
[6]
  AC50: 12.7 µM (active)
[33]
  AC50: 2.19 µM (active)
[34]
  AC50: 31.7 µM (active)
